Measured values as given in ChEMBL document CHEMBL4261639, “Cell-Active Small Molecule Inhibitors of the DNA-Damage Repair Enzyme Poly(ADP-ribose) Glycohydrolase (PARG): Discovery and Optimization of Orally Bioavailable Quinazolinedione Sulfonamides” (J Med Chem, 2018).
pEC50: −log10 of the molar value.

biological target: Poly(ADP-ribose) glycohydrolase (Homo sapiens, UniProt Q86W56); test: Inhibition of human full length PARG using Bt-NAD ribosylated PARP1 substrate after 10 mins by TR-FRET assay
Sequence (Q86W56 whole entry): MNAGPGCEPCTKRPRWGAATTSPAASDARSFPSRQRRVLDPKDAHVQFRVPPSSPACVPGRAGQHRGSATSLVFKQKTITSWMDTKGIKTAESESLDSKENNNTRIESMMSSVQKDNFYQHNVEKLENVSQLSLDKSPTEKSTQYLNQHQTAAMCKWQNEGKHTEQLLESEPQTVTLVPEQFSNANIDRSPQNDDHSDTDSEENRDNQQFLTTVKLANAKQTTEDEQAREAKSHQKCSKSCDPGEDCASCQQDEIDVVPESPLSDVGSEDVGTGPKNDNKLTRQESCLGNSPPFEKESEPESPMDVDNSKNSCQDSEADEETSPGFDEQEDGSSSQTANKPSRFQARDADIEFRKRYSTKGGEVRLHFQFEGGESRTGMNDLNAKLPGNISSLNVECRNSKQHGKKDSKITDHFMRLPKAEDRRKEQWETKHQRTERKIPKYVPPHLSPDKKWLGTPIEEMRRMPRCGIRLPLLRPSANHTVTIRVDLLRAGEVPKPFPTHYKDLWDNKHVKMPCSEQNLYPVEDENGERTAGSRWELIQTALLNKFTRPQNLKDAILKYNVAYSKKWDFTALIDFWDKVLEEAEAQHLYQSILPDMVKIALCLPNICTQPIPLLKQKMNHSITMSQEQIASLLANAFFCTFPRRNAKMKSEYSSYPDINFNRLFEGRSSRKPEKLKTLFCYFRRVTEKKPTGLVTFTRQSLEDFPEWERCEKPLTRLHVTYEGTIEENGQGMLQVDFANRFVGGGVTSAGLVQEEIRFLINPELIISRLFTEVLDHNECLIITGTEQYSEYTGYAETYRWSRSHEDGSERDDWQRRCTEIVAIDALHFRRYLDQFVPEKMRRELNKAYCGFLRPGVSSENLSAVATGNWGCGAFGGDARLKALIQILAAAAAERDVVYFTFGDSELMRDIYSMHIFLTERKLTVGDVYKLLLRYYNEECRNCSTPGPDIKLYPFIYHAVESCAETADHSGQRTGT

SMILES | pEC50
Cn1ccc(Cn2c(=O)c3cc(S(=O)(=O)NC4(C)CC4)ccc3n(C)c2=O)n1 | 4.92
Cn1c(=O)c2cc(S(=O)(=O)NC3(C)CC3)ccc2n(Cc2ccccn2)c1=O | 5.24
Cn1c(=O)n(Cc2cnc[nH]2)c(=O)c2cc(S(=O)(=O)NC3(C)CC3)ccc21 | 5.40
CCNS(=O)(=O)c1ccc2c(c1)c(=O)n(CC)c(=O)n2CC | 3.85
Cn1c(=O)n(Cc2ccncc2)c(=O)c2cc(S(=O)(=O)NC3(C)CC3)ccc21 | 5.10
O=C1c2ccccc2C(=O)c2cc(S(=O)(=O)NCCO)ccc21 | < 3.82
CCNS(=O)(=O)c1ccc2c(c1)c(=O)n(C)c(=O)n2C | < 3.82
COc1ccccc1Cn1c(=O)n(C)c(=O)c2cc(S(=O)(=O)NC3(C)CC3)ccc21 | 5.49
Cn1cncc1Cn1c(=O)c2cc(S(=O)(=O)NC3(C)CC3)ccc2n(C)c1=O | 5.48
Cn1c(=O)c2cc(S(=O)(=O)NC3CC3)ccc2n(C)c1=O | 4.96
Cn1cnnc1Cn1c(=O)c2cc(S(=O)(=O)NC3(C)CC3)ccc2n(C)c1=O | 5.51
N#CCCNS(=O)(=O)c1ccc2c(c1)C(=O)c1ccccc1C2=O | 4.06
C#CCn1c(=O)c2cc(S(=O)(=O)NC3(C)CC3)ccc2n(C)c1=O | 5.52
CNS(=O)(=O)c1ccc2c(c1)C(=O)c1ccccc1C2=O | < 4.52
Cn1c(=O)n(CC2CC2)c(=O)c2cc(S(=O)(=O)NC3(C)CC3)ccc21 | 5.34
Cc1cc(Cn2c(=O)c3cc(S(=O)(=O)NC4(C)CC4)ccc3n(C)c2=O)[nH]n1 | 5.49
Cc1nc(Cn2c(=O)c3cc(S(=O)(=O)NC4(C)CC4)ccc3n(C)c2=O)cs1 | 5.00
CCC(C)(C)NS(=O)(=O)c1ccc2c(c1)C(=O)c1ccccc1C2=O | 4.31
COCC(C)(C)NS(=O)(=O)c1ccc2c(c1)C(=O)c1ccccc1C2=O | < 3.82
Cn1nccc1Cn1c(=O)c2cc(S(=O)(=O)NC3(C)CC3)ccc2n(C)c1=O | 5.39

Now those with a higher pEC50, led by results:

pEC50 | SMILES
6.42 | Cn1c(=O)n(Cc2cn[nH]c2)c(=O)c2cc(S(=O)(=O)NC3(C)CC3)ccc21
6.42 | Cc1cc(Cn2c(=O)n(C)c(=O)c3cc(S(=O)(=O)NC4(C)CC4)ccc32)n(C)n1
5.85 | Cn1c(=O)c2cc(S(=O)(=O)NC3(C)CC3)ccc2n(Cc2ccccc2F)c1=O
6.33 | Cc1nnc(Cn2c(=O)c3cc(S(=O)(=O)NC4(C)CC4)ccc3n(C)c2=O)s1
6.32 | Cn1c(=O)n(Cc2cnc(N)s2)c(=O)c2cc(S(=O)(=O)NC3(C)CC3)ccc21
6.35 | COc1ccc(Cn2c(=O)n(C)c(=O)c3cc(S(=O)(=O)NC4(C)CC4)ccc32)cc1
5.57 | Cn1c(=O)n(Cc2csnn2)c(=O)c2cc(S(=O)(=O)NC3(C)CC3)ccc21
5.64 | Cn1c(=O)n(Cc2ccns2)c(=O)c2cc(S(=O)(=O)NC3(C)CC3)ccc21
6.21 | Cc1noc(C)c1Cn1c(=O)c2cc(S(=O)(=O)NC3(C)CC3)ccc2n(C)c1=O
6.32 | Cc1ncc(Cn2c(=O)c3cc(S(=O)(=O)NC4(C)CC4)ccc3n(C)c2=O)s1
5.80 | Cn1c(=O)c2cc(S(=O)(=O)NC3(C)CC3)ccc2n(Cc2cccc(F)c2)c1=O
6.28 | Cn1c(=O)c2cc(S(=O)(=O)NC3(C)CC3)ccc2n(Cc2ccc(F)cc2)c1=O
5.89 | Cn1c(=O)c2cc(S(=O)(=O)NC3(C)CC3)ccc2n(Cc2cccnc2)c1=O
5.60 | Cn1c(=O)n(Cc2cccnc2)c(=O)c2cc(S(=O)(=O)NC3(C)CC3)ccc21
6.07 | COc1cccc(Cn2c(=O)n(C)c(=O)c3cc(S(=O)(=O)NC4(C)CC4)ccc32)c1
5.92 | Cn1nccc1Cn1c(=O)n(C)c(=O)c2cc(S(=O)(=O)NC3(C)CC3)ccc21
5.77 | Cn1c(=O)n(CC(=O)c2ccncc2)c(=O)c2cc(S(=O)(=O)NC3(C)CC3)ccc21
5.92 | Cn1c(=O)n(Cc2ccno2)c(=O)c2cc(S(=O)(=O)NC3(C)CC3)ccc21
5.80 | Cn1c(=O)n(CC(=O)c2ccccc2)c(=O)c2cc(S(=O)(=O)NC3(C)CC3)ccc21
6.11 | Cc1oncc1Cn1c(=O)c2cc(S(=O)(=O)NC3(C)CC3)ccc2n(C)c1=O
